One series concerns the target T1, PrfAWT (Listeria monocytogenes serovar 1/2a, UniProt P22262).
T1 construct: followed by residues Glu7-N237; vector-derived N-terminal tail […]; (left after thrombin cleavage; inferred from pET28a and Ni-NTA capture), removed by thrombin (N, cleaved yes); made in house; host or cells: E. coli BL21(DE3)
Description: Isothermal titration calorimetry (ITC), binding to purified PrfAWT.

In series [1] the target is T2, PrfAWT binding to hly-DNA (Listeria monocytogenes serovar 1/2a, UniProt P22262).
T2 construct: followed by residues Glu7-N237; vector-derived N-terminal tail […]; (left after thrombin cleavage; inferred from pET28a and Ni-NTA capture), removed by thrombin (N, cleaved yes); made in house; host or cells: E. coli BL21(DE3)
As to the kind of experiment: SPR, binding of compound-pre-incubated PrfAWT to hly-promoter DNA. Type of series: biochemical. The conditions noted are these: 200 nM protein, 37°C, read-out: IC50, reduction of binding of PrfAWT to hly-DNA.

For series [2], the system named is L. monocytogenes strain EGDe (WT) uptake by HeLa cells. The format is cell-based, Listeria monocytogenes. The conditions noted are these: 10 and 1 μM, viable count. From the text:
(§1) Figure 1 Ring-Fused 2-Pyridones Inhibit L. monocytogenes Uptake by Cultured Cells (A) Relative uptake (%) compared with control as determined by viable count measurements. […] All samples were correlated to the DMSO control (C, gray bar), which was arbitrarily set at 100%. Error bars show SDs. […] See also Figure S1. […] Error bars show SDs.

Series [3] deals with L. monocytogenes carrying PrfAWT in Caco-2 cells. As to the kind of experiment: Time-course infection of Caco-2 cells, strain carrying PrfAWT. Type of series: cell-based, Listeria monocytogenes. The following applies: viable counts, 50 μM / 100 μM.
Description: as §1

For series [4], the system named is LLO and ActA expression in L. monocytogenes. Description: Western blot of virulence protein levels (LLO, ActA, PrfA, P60), EGDe. Type of series: cell-based, Listeria monocytogenes. The conditions noted are these: for expression of LLO and ActA (protein): 100 μM; for PrfA expression (protein): across all concentrations. On the procedure:
(§2) (D) Compound 2 abrogates intracellular induction of ActA expression. Caco-2 cells were infected with the indicated bacteria and treated 30 min post infection with 100 μM of 2 or the equivalent volume of DMSO (C). Total cellular protein was extracted at indicated time points after addition of compound and subjected to SDS-PAGE. The levels of ActA protein were visualized by western blot using a specific antibody.
A detailed procedure is provided in the Supplemental Experimental Procedures.
concentration of 0.1% DMSO. […] The
incubated on ice for 1 h.
washed in 80% ice cold acetone.
Subsequently the samples were centrifuged and the
added lysozyme and DNase.
secondary antibodies (Dako P0260).

For series [5], the system named is intracellular ActA expression of L. monocytogenes in Caco-2 cells. As to the kind of experiment: Intracellular ActA levels in infected Caco-2 cells, compound added 30 min post infection. Type of series: cell-based, Listeria monocytogenes. The conditions noted are these: 100 μM added 30 min post infection, 4 hr post infection. On the procedure:
as §2
ActA western blotting detection for intracellular bacteria: The collected bacterial pellets were resuspended in 100µl 1x sample buffer (Laemmli, 1970) and lysed by incubation at 98 °C for 20 min. 10µL of each sample was subjected to SDS-PAG and Western blotting using anti-ActA […]
Production of antibodies against ActA was conducted by Agrisera. The antibodies were raised in rabbits, against a peptide mix consisting of Y21T(Kocks et al., 1993) and (NH2-) […]
(-CONH2). The rabbits were immunized four times over a four month period, the first with FCA and the subsequent with FIA. The antisera was recovered 2 weeks after the last immunization.
Infection for determination of intracellular ActA levels
Caco-2 cells were seeded into 24 well plates (Corning #356408) and allowed to grow until confluent. Indicated bacterial strains were grown to OD600 = 1, added to CaCo-2 cells at a MOI of 10, centrifuged for 10 min at 800 g and allowed to infect for 30 minutes. […]

Series [6] deals with L. monocytogenes strain F2365 uptake into Caco-2 cells. Description: Uptake of L. monocytogenes strain F2365 into Caco-2 cells. The format is cell-based, Listeria monocytogenes. The following applies: 50 μM, 2 hr. How it is done: Protein extracts were isolated from indicated L. monocytogenes strain in the absence (C, equivalent volume DMSO) or presence of 100 μM of 1 and the specified proteins (LLO PrfA, or P60 (control)) were detected by western blot using specific antibodies. […] (B) Compound 2 inhibits the uptake of an L. monocytogenes strain of serovar 4b. L. monocytogenes strain F2365 was allowed to infect Caco-2 cells for 2 hr with 2 (50 μM). All samples were correlated to the DMSO-treated control (C, gray bar) which was arbitrarily set at 100%. Error bars show SDs.

The series “crystal structure” deals with the molecule itself. Description: crystal structure.

“Also recorded” adds a separate entry of the source. Bounds are passed on as bounds.

This is an account of results in PMC4802734 (Cell Chemical Biology, 2016).

Turning to `Cc1ccc(Cc2cc(=O)n3c(c2C2CC2)SC[C@H]3C(=O)O)c2ccccc12` [compound 2], on PrfAWT, the “binding stoichiometry per monomer of homodimeric PrfA” value was 1 to 1. Moreover, in series [1], the half-maximal inhibitory concentration (IC50) was 6 to 7 µM. Also, the “L. monocytogenes uptake relative to untreated controls” value in series [2] is on record as “reducing the level of L. monocytogenes uptake”. For the same molecule, in series [3], the “replication of L. monocytogenes (PrfAWT) within Caco-2 cells” value is listed as “inability of L. monocytogenes to replicate; also recorded: unable to replicate”. Further, in series [4], the “expression of LLO and ActA (protein)” value is given as “abolished”; the “PrfA expression (protein)” value is reported as “remained unchanged”. Also, the “concentration down to which LLO and ActA levels were decreased” value in series [4] (dose dependent) was at most 3.3 µM. In addition, the “induction of intracellular ActA levels” value in series [5] is recorded as “weakened in compound-treated cells, although not completely abolished”. Further, the “uptake of the F2365 strain into Caco-2 cells” value in series [6] is reported as “effectively inhibited uptake”.
Regarding `O=C(O)[C@@H]1CSc2c(C3CC3)c(Cc3cnc4ccccc4c3)cc(=O)n21` [compound 3], on PrfAWT, the “binding stoichiometry per monomer of homodimeric PrfA” value was in the range of 1 to 1. Moreover, the half-inhibitory concentration (IC50) in series [1] was about 30 µM. Also, the “L. monocytogenes uptake relative to untreated controls” value in series [2] is recorded as “consistently failed to attenuate uptake”. Moreover, in series [4], the “expression of LLO and ActA (protein)” value was “did not reduce LLO or ActA expression”; the “PrfA expression (protein)” value is “remained unchanged”.

B1: PrfA wild type (transcriptional activator PrfA of Listeria monocytogenes) (natural protein)
chain: MNAQAEEFKKYLETNGIKPKQFHKKELIFNQWDPQEYCIFLYDGITKLTSISENGTIMNLQYYKGAFVIMSGFIDTETSVGYYNLEVISEQATAYVIKINELKELLSKNLTHFFYVFQTLQKQVSYSLAKFNDFSINGKLGSICGQLLILTYVYGKETPDGIKITLDNLTMQELGYSSGIAHSSAVSRIISKLKQEKVIVYKNSCFYVQNLDYLKRYAPKLDEWFYLACPATWGKLN
notes: also called PrfAWT; source: purified PrfA protein
With B1, the “stoichiometry N” value in the series “crystal structure” worked out at 2.
